In patent US6861429B2, “2,3-diaryl-pyrazolo[1,5-b]pyridazines derivatives, their preparation and their use as cyclooxygenase 2 (COX-2) inhibitors” (SmithKline Beecham Corporation, priority 1997, dated 2005):

Key:
human COX-1 = target: T1, human COX-1 (Homo sapiens, UniProt P23219); test: Inhibition of PGE2 release in COS cells stably transfected with human COX-1; format: cell-based; conditions: 30 μM arachidonic acid, PGE2 release by enzyme immunoassay
T1 construct: expressed in transfected cells
T1 sequence (P23219 24-599): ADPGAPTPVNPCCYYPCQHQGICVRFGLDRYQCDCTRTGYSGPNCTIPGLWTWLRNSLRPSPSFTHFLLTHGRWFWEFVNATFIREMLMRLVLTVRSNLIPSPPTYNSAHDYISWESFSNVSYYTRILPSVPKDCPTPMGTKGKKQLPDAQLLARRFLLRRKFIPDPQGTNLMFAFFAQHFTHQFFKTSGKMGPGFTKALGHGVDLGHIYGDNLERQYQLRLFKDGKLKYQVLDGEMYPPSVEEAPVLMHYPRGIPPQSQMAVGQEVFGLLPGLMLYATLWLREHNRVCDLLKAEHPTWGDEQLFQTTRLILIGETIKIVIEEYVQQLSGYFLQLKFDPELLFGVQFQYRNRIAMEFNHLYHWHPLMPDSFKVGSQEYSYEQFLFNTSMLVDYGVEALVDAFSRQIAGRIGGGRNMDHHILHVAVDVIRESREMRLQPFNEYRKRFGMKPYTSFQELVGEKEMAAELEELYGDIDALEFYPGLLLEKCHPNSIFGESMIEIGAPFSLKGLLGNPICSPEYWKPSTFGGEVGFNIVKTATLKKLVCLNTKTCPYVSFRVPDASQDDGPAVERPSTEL
Method: (§1) Inhibitory activity against human COX-1and COX-2was assessed in COS cells which had been stably transfected with cDNA for human COX-1and human COX-2. 24Hours prior to experiment, COS cells were transferred from the 175 cm^2flasks in which they were grown, onto 24-well cell culture plates using the following procedure. The incubation medium (Dulbecco's modified eagles medium (DMEM) supplemented with heat-inactivated foetal calf serum (10% v/v), penicillin (100 IU/ml), streptomycin (100 μg/ml) and geneticin (600 μg/ml)) was removed from a flask of confluent cells (1flask at confluency contains approximately 1×10^7 cells). 10 ml of phosphate buffered saline (PBS) was added to the flask to wash the cells. Having discarded the PBS, cells were then rinsed in 10 ml trypsin for 20 seconds, after which the trypsin was removed and the flask placed in an incubator (37°) for 1-2 minutes until cells became detached from the flask. The flask was then removed from the incubator and cells resuspended in 10 ml of fresh incubation medium. The contents of the flask was transferred to a 250 ml sterile container and the volume of incubation medium subsequently made up to 100 ml. […] If more than 1 flask of cells were required, the cells from the individual flasks were combined before being dispensed into the 24-well plates.
(§2) Following the overnight incubation, the incubation medium was completely removed from the 24-well cell culture plates and replaced with 250 μl fresh DMEM (37° C.). The test compounds were made up to 250× the required test concentration in DMSO and were added to the wells in a volume of 1 μl. […] Plates were then incubated for a further 15 minutes, after which the incubation medium was removed from each well of the plates and stored at −20° C., prior to determination of prostaglandin E2(PGE2) levels using enzyme immunoassay. […] The selectivity ratio of inhibition of COX-1 versus COX-2 was calculated by comparing respective IC50 values.

human COX-2 = target: T2, human COX-2 (Homo sapiens, UniProt P35354); test: Inhibition of PGE2 release in COS cells stably transfected with human COX-2; format: cell-based; conditions: 30 μM arachidonic acid, PGE2 release by enzyme immunoassay
T2 construct: expressed in transfected cells
T2 sequence (P35354 18-604): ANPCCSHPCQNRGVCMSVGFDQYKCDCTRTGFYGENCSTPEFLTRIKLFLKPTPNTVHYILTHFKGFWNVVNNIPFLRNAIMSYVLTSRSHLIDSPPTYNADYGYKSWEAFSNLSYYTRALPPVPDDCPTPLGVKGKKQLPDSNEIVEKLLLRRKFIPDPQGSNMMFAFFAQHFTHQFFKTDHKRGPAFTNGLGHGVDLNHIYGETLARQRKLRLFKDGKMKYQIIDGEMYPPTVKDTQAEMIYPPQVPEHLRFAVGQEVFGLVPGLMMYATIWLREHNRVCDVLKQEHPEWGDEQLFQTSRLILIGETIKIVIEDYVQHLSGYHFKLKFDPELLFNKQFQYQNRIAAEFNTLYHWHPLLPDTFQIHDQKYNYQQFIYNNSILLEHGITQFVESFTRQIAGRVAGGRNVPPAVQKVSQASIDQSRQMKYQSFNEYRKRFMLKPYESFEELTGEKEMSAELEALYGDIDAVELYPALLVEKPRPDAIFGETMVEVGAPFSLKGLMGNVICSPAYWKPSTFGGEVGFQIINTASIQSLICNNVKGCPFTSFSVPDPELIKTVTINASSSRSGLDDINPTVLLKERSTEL
Method: as §1, §2

SMILES | IC50 (human COX-1) | IC50 (human COX-2)
CS(=O)(=O)c1ccc(-c2c(-c3ccc(F)cc3)nn3nc(OC(F)F)ccc23)cc1 [1(v), 6-Difluoromethoxy-2-(4-fluoro-phenyl)-3-(4-methanesulfonyl-phenyl)-pyrazolo[1,5-b]pyridazine] | > 100 µM | 0.035 µM
COc1ccc(-c2nn3ncccc3c2-c2ccc(S(C)(=O)=O)cc2)cc1 [2(ii), 3-(4-Methanesulfonyl-phenyl)-2-(4-methoxy-phenyl)-pyrazolo[1,5-b]pyridazine] | – | < 0.01 µM
CCOc1ccc(-c2nn3ncccc3c2-c2ccc(S(C)(=O)=O)cc2)cc1 [3(ii), 2-(4-Ethoxy-phenyl)-3-(4-methanesulfonyl-phenyl)-pyrazolo[1,5-b]pyridazine] | > 100 µM | –
CS(=O)(=O)c1ccc(-c2c(-c3cccc(F)c3)nn3nc(OC(F)F)ccc23)cc1 [7(viii), 6-Difluoromethoxy-2-(3-fluoro-phenyl)-3-(4-methanesulfonyl-phenyl)-pyrazolo[1,5-b]pyridazine] | > 55.2 µM | 0.016 µM
CS(=O)(=O)c1ccc(-c2c(-c3ccc(OC(F)F)cc3)nn3ncccc23)cc1 [Example 5, 2-(4-Difluoromethoxy-phenyl)-3-(4-methanesulfonyl-phenyl)-pyrazolo[1,5-b]pyridazine] | > 100 µM | 0.021 µM
